This note sets out measurements from patent publication US20220089578A1, “COMPOUNDS AS GLP-1R AGONISTS” (Terns Pharmaceuticals, Inc., priority 2020, published 2022).

Bounds are passed on as bounds.

T1 sequence (P43220 24-463): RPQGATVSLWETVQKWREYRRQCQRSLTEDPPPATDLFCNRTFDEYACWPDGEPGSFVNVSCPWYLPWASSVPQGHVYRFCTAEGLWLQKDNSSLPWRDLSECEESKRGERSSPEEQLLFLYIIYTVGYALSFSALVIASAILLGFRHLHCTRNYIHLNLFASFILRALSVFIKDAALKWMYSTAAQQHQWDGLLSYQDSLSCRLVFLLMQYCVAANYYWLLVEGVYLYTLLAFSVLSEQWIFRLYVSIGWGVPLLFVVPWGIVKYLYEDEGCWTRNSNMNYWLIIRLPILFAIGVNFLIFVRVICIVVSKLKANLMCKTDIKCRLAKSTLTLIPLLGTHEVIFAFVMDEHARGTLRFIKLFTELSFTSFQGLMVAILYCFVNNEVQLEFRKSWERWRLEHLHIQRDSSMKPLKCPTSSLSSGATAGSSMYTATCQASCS

The first experiment concerns the target T1, human GLP-1R (Homo sapiens, UniProt P43220). In words: GLP-1R Cell Assay 1: cAMP Hunter CHO-K1 GLP1R Gs cell line, HitHunter cAMP assay. The format is cell-based. Particulars: Table 2; cAMP Hunter CHO-K1 GLP1R Gs cells; percent activity normalized to Exendin-4. In short, it runs like this: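 Luminescent enzyme-fragment-complementation immunoassay quantified cellular cAMP after 30-60 min compound exposure at 37 °C in HBSS/10 mM HEPES. Data from duplicate runs were normalised to Exendin-4 and fitted nonlinearly for EC50.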
(In general: Changes in cAMP serve as a functional read-out for many G protein-coupled receptors.)
What is called EC50 is the concentration at which the effect is half-maximal. Higher therefore signals a need for much substance. The molecule `O=C(O)c1ccc2nc(CN3CCN(c4cccc(OCc5ccncc5)n4)CC3)n(C[C@@H]3CCO3)c2c1` [Compound 42, (S)-1-(oxetan-2-ylmethyl)-2-((4-(6-(pyridin-4-ylmethoxy)pyridin-2-yl)piperazin-1-yl)methyl)-1H-benzo[d]imidazole-6-carboxylic acid] displayed an EC50 of 3.84 nM.
The molecule `N#Cc1ccc(COc2cccc([C@]34CCN(Cc5nc6ccc(C(=O)O)cc6n5C[C@@H]5CCO5)C[C@H]3C4)n2)c(F)c1` [Compound 9-P2, 2-(((1S,6R)-6-(6-((4-cyano-2-fluorobenzyl)oxy)pyridin-2-yl)-3-azabicyclo[4.1.0]heptan-3-yl)methyl)-1-((S)-oxetan-2-ylmethyl)-1H-benzo[d]imidazole-6-carboxylic acid] returned an EC50 of 0.494 nM. This EC50 lies about 7.8-fold lower than the previous one.
Molecule `O=C(O)c1ccc2nc(CN3CCN(c4cccc(OCCC5CCCCC5)n4)CC3)n(C[C@@H]3CCO3)c2c1` [Compound 44, (S)-2-((4-(6-(2-cyclohexylethoxy)pyridin-2-yl)piperazin-1-yl)methyl)-1-(oxetan-2-ylmethyl)-1H-benzo[d]imidazole-6-carboxylic acid] came in with an EC50 of 82.1 nM. Against the preceding molecule, the EC50 is about 170-fold higher.
For `CC(=O)N1CCC(COc2cccc(N3CCN(Cc4nc5ccc(C(=O)O)cc5n4C[C@@H]4CCO4)CC3)n2)CC1` [Compound 38, (S)-2-((4-(6-((1-acetylpiperidin-4-yl)methoxy)pyridin-2-yl)piperazin-1-yl)methyl)-1-(oxetan-2-ylmethyl)-1H-benzo[d]imidazole-6-carboxylic acid], the EC50 was more than 500 nM.
`NC(=O)c1cnc(COc2cccc(N3CCN(Cc4nc5ccc(C(=O)O)cc5n4C[C@@H]4CCO4)CC3)n2)nc1` [Compound 81, (S)-2-((4-(6-((5-carbamoylpyrimidin-2-yl)methoxy)pyridin-2-yl)piperazin-1-yl)methyl)-1-(oxetan-2-ylmethyl)-1H-benzo[d]imidazole-6-carboxylic acid] displayed an EC50 of 207 nM.
In turn, `CCn1cncc1Cn1c(CN2CC[C@@]3(c4cccc(OCc5ccc(C#N)cc5F)n4)C[C@H]3C2)nc2ccc(C(=O)O)cc21` (single isomer, unassigned) [Compound 121-P1] came in with an EC50 of 0.0329 nM.
For the molecule `N#Cc1ccc(Cn2ccc3ccc(N4CCN(Cc5nc6ccc(C(=O)O)cc6n5C[C@@H]5CCO5)CC4)nc32)c(F)c1` [Compound 29, (S)-2-((4-(1-(4-cyano-2-fluorobenzyl)-1H-pyrrolo[2,3-b]pyridin-6-yl)piperazin-1-yl)methyl)-1-(oxetan-2-ylmethyl)-1H-benzo[d]imidazole-6-carboxylic acid], the EC50 was found to be 16.1 nM. Against the preceding molecule, the EC50 is about 490-fold higher.
The same measure, in the same setting: the value for `CC1Cc2cc(C#N)cc(F)c2CN1c1cccc(N2CCN(Cc3nc4ccc(C(=O)O)cc4n3C[C@@H]3CCO3)CC2)n1` (stereo partly drawn) [Compound 133, 2-((4-(6-(6-cyano-8-fluoro-3-methyl-3,4-dihydroisoquinolin-2(1H)-yl)pyridin-2-yl)piperazin-1-yl)methyl)-1-(((S)-oxetan-2-yl)methyl)-1H-benzo[d]imidazole-6-carboxylic acid] was 10.6 nM.
On the same count and under the same terms, the figure for `N#Cc1ccc(COc2cccc(C3CCN([C@H]4CCCn5c4nc4ccc(C(=O)O)cc45)CC3)n2)c(F)c1` [Compound 89, (S)-4-(4-(6-((4-cyano-2-fluorobenzyl)oxy)pyridin-2-yl)piperidin-1-yl)-1,2,3,4-tetrahydrobenzo[4,5]imidazo[1,2-a]pyridine-8-carboxylic acid] is 76.2 nM; for `N#Cc1ccc(COc2cccc(C3CCN([C@H]4COCCn5c4nc4ccc(C(=O)O)cc45)CC3)n2)c(F)c1` (single isomer, unassigned) [Compound 7-P1] it is 5.19 nM.
As to `N#Cc1ccc(COc2cccc(N3CCN(Cc4nc5ccc(C(=O)O)cc5n4CC4CCS4(=O)=O)CC3)n2)c(F)c1` (single isomer, unassigned) [Compound 140-P2], the EC50 amounted to 0.17 nM.

Staying with this experiment, now noted: Table 3; cAMP Hunter CHO-K1 GLP1R Gs cells; percent activity normalized to Exendin-4.
As for `N#Cc1ccc(CN2CCCc3ccc(N4CCN(Cc5nc6ccc(C(=O)O)cc6n5C[C@@H]5CCO5)CC4)nc32)c(F)c1` [Compound 148, (S)-2-((4-(8-(4-cyano-2-fluorobenzyl)-5,67,8-tetrahydro-1,8-naphthyridin-2-yl)piperazin-1-yl)methyl)-1-(oxetan-2-ylmethyl)-1H-benzo[d]imidazole-6-carboxylic acid], the EC50 was more than 500 nM.

The target of another experiment is T1, human GLP-1R. Nature of the experiment: GLP-1R Cell Assay 2: CHO-K1_hGLP-1Rlow_clone10 cells, LANCE Ultra cAMP TR-FRET assay. The format is cell-based. The arrangement: expressed in transfected cells. Particulars: Table 3, percent activation relative to control GLP-1 peptide agonist. The procedure: Stable cell lines expressing high and low GLP-1R surface expression were generated in CHO-K1 cells transfected (Fugene 6) with a puromycin selectable DNA plasmid encoding human GLP-1R receptor (accession number: NM_002062.5) under control of an EF1A promoter. Transfected cells were seeded into 24-well plates (9,000 cells/well) containing complete medium and incubated in a humidified incubator at 37° C. with 5% carbon dioxide. After overnight incubation, medium was replaced with complete medium supplemented with puromycin (6 μg/mL) and refreshed every 2-3 days to select for stably transfected cells. Individual pools of selected cells were expanded prior to analysis for responsiveness to GLP-1 control peptide using a TR-FRET assay to detect cAMP (LANCE Ultra cAMP Assay, Perkin Elmer). Briefly, cells were collected in Versene solution, plated in 384-well plates (1,000 cells/well) and combined with serially diluted GLP-1R control peptide (10 nL) using an acoustic dispenser (ECHO). Plates were incubated for 30 minutes at 25° C. prior to the addition of EU-cAMP tracer (5 μL) and Ulight-anti-cAMP (5 μL) reagents to each well, followed by 15 minutes incubation at 25° C. TR-FRET signal was detected using an EnVision Multimode Plate Reader (excitation=320 nm; emission=615 and 655 nm). Dose-response curves were used to generate EC50 values as a measure of responsiveness to the GLP-1R control peptide. Selected cell lines were monitored for responsiveness over multiple passages to ensure stability. […] Briefly, GLP-1R expression was analyzed by flow cytometry using a fluorescein-labeled Exendin-4 peptide fluorescent probe (FLEX). Cells were harvested in Versene solution and washed 3-times with PBS+0.5% BSA before incubation with FLEX reagent (10 μM) for 2 hours at room temperature. After incubation, cells were washed 3-times in PBS+0.5% BSA before final resuspension in PBS prior to analysis by flow cytometry to measure FLEX mean fluorescence intensity (MFI) as a measure of GLP-1R expression on the cell surface.
For compound testing in the CHO-K1_hGLP-1Rlow_clonel0 cell lines, cells were seeded in 384-well plates (1,000 cells/well). Test compounds were serially diluted in DMSO (10-point, 3-fold dilution), added to wells using an ECHO dispenser (10 nL/well) and plates were centrifuged for 1 min and agitated for 2 min at room temperature prior to 30-minute incubation at 25° C. After incubation, Eu-cAMP (5 p,L) and Ulight-anti-cAMP (5 μL) reagents were added to each well, followed by centrifugation for 1 minute, agitation for 2 minutes at room temperature, and final incubation of the plates at 25° C. for 15 minutes. Plates were read using an EnVision microplate reader (excitation=320 nm; emission=615 and 655 nm). Dose-response curves were generated from duplicate wells based on percent activation calculated relative to a control GLP-1 peptide agonist that was run in parallel. EC50 values were determined by fitting percent activation as a function of compound concentration using the Hill equation (XLfit).
A general note: Time-resolved FRET reads energy transfer from a long-lived donor to a nearby acceptor.
`O=C(O)c1ccc2nc(CN3CCC(c4cccc(Oc5ccccc5)n4)CC3)n(C[C@@H]3CCO3)c2c1` [Compound 183, (S)-1-(oxetan-2-ylmethyl)-2-((4-(6-phenoxypyridin-2-yl)piperidin-1-yl)methyl)-1H-benzo[d]imidazole-6-carboxylic acid] registered an EC50 of more than 10000 nM.
`N#Cc1cccc2c(COc3cccc(C4CCN(Cc5nc6ccc(C(=O)O)cc6n5C[C@@H]5CCO5)CC4)n3)csc12` [Compound 187, (S)-2-((4-(6-((7-cyanobenzo[b]thiophen-3-yl)methoxy)pyridin-2-yl)piperidin-1-yl)methyl)-1-(oxetan-2-ylmethyl)-1H-benzo[d]imidazole-6-carboxylic acid] had an EC50 of 13.2 nM.
The same measure, in the same setting: the value for `N#Cc1cccc2c(COc3cccc(C4CCN(Cc5nc6ccc(C(=O)O)cc6n5C[C@@H]5CCO5)CC4)n3)csc12` [Compound 173, (S)-2-((4-(6-((7-cyanobenzo[b]thiophen-3-yl)methoxy)pyridin-2-yl)piperidin-1-yl)methyl)-1-(oxetan-2-ylmethyl)-1H-benzo[d]imidazole-6-carboxylic acid] was 13.2 nM; that for `O=C(O)c1ccc2nc(CN3CCC(c4cccc(OCc5cc6cccc(C(F)(F)F)c6o5)n4)CC3)n(C[C@@H]3CCO3)c2c1` [Compound 177, (S)-1-(oxetan-2-ylmethyl)-2-((4-(6-((7-(trifluoromethyl)benzofuran-2-yl)methoxy)pyridin-2-yl)piperidin-1-yl)methyl)-1H-benzo[d]imidazole-6-carboxylic acid] was 6.73 nM.
On to `CCn1cncc1Cn1c(CN2CCC(c3cccnc3OCc3ccc(C(N)=O)cc3F)CC2)nc2ccc(C(=O)O)cc21` [Compound 170, 2-((4-(2-((4-carbamoyl-2-fluorobenzyl)oxy)pyridin-3-yl)piperidin-1-yl)methyl)-1-((1-ethyl-1H-imidazol-5-yl)methyl)-1H-benzo[d]imdiazole-6-carboxylic acid], for which the EC50 is 120 nM.
In turn, `CCn1ccnc1Cn1c(CN2CCC(c3cccc(N4CCc5cc(C#N)cc(F)c5C4)n3)CC2)nc2ccc(C(=O)O)cc21` [Compound 171, 2-((4-(6-(6-cyano-8-fluoro-3,4-dihydroisoquinolin-2(1H)-yl)pyridin-2-yl)piperidin-1-yl)methyl)-1-((1-ethyl-1H-imidazol-2-yl)methyl)-1H-benzo[d]imidazole-6-carboxylic acid] yielded an EC50 of 1410 nM. Against the preceding molecule, the EC50 is about 12-fold higher.
`O=C(O)c1ccc2nc(CN3CCC(c4cccc(OCc5nc(C(F)(F)F)cs5)n4)CC3)n(C[C@@H]3CCO3)c2c1` [Compound 179, (S)-1-(oxetan-2-ylmethyl)-2-((4-(6-((4-(trifluoromethyl)thiazol-2-yl)methoxy)pyridin-2-yl)piperidin-1-yl)methyl)-1H-benzo[d]imidazole-6-carboxylic acid] registered an EC50 of 36.6 nM.
